IC50 data for 20 molecules are collected here from patent publication US20250059185A1 (Hoffmann-La Roche Inc., priority 2021, published 2025).

SMILES strings stand for the structures.

Sequence of MAGL (Q99685 whole entry, species assumed): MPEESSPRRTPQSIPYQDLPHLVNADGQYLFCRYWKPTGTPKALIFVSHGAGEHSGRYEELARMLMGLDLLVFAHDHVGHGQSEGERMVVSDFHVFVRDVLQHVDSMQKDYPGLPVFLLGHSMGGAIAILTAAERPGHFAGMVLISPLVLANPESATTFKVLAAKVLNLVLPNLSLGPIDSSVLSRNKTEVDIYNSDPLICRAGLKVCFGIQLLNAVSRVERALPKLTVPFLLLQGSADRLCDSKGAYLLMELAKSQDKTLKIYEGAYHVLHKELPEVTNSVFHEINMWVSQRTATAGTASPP

The target in the experiment is MAGL (Homo sapiens (Human), UniProt Q99685). The experiment can be described thus: 2-AG assay (MAGL inhibitory activity, hydrolysis of 2-arachidonoylglycerol followed by mass spectrometry). Particulars: 50 pM MAGL protein, 15 min pre-incubation, 30 min incubation at RT. The class given is biochemical. The gist of the method:
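Human MAGL (50 pM final) preincubated 15 min at RT with compound (3-fold dilutions, 12.5 μM to 0.8 pM final) in 50 mM TRIS, 1 mM EDTA, 0.01% Tween-20, 2.5% DMSO. Reaction with […] 2-AG ran 30 min at RT, then was quenched with acetonitrile containing d8-arachidonic acid. Arachidonic acid measured by SPE–triple-quad MS (negative ESI), activity from the arachidonic/d8-arachidonic acid intensity ratio.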
The term IC50 denotes the concentration at which inhibition is half-maximal. Read a low IC50 as greater potency. Molecule `C[C@H]1c2nn(C)c(-c3cc(F)cc(F)c3)c2CCN1C(=O)c1cc(F)cc(-c2ccc(=O)[nH]c2)c1Cl` [Example 29, 5-[2-Chloro-3-[(7S)-3-(3,5-difluorophenyl)-2,7-dimethyl-5,7-dihydro-4H-pyrazolo[3,4-c]pyridine-6-carbonyl]-5-fluoro-phenyl]-1H-pyridin-2-one] came in with an IC50 of 1 nM. Next, `C[C@H]1c2nn(C)c(-c3cc(Cl)cc(C4(C(N)=O)CC4)c3)c2CCN1C(=O)c1cc(F)cc(-c2c[nH]c(C#N)c2)c1Cl` [Example 71, 1-[3-chloro-5-[(7S)-6-[2-chloro-3-(5-cyano-1H-pyrrol-3-yl)-5-fluoro-benzoyl]-2,7-dimethyl-5,7-dihydro-4H-pyrazolo[3,4-c]pyridin-3-yl]phenyl]cyclopropanecarboxamide]: 2160 nM. Turning to `C[C@H]1c2nn(C)c(-c3cncc(C(F)(F)F)n3)c2CCN1C(=O)c1ncn(-c2ccc[nH]c2=O)n1` [Example 67, 3-[3-[(7S)-2,7-dimethyl-3-[6-(trifluoromethyl)pyrazin-2-yl]-5,7-dihydro-4H-pyrazolo[3,4-c]pyridine-6-carbonyl]-1,2,4-triazol-1-yl]-1H-pyridin-2-one], the IC50 was determined as 4220 nM. Under `C[C@H]1c2nn(C)c(-c3cc(F)cc(F)c3)c2CCN1C(=O)c1ncn(-c2cc(Cl)cnc2O)n1` [Example 100, [1-(5-chloro-2-hydroxy-3-pyridyl)-1,2,4-triazol-3-yl]-[(7S)-3-(3,5-difluorophenyl)-2,7-dimethyl-5,7-dihydro-4H-pyrazolo[3,4-c]pyridin-6-yl]methanone] stands 31.9 nM. The molecule `CC1c2nn(C)c(-c3cc(F)cc(F)c3)c2CCN1C(=O)c1cc(F)cc(OCC2CNC(=O)C2)c1Cl` (racemic) [Example 40, 4-[[2-Chloro-3-[3-(3,5-difluorophenyl)-2,7-dimethyl-5,7-dihydro-4H-pyrazolo[3,4-c]pyridine-6-carbonyl]-5-fluoro-phenoxy]methyl]pyrrolidin-2-one] came in with an IC50 of 293 nM.

Molecule `COc1cccc(C(=O)N2CCc3c(nn(C)c3-c3cc(Cl)cc(C4(S(C)(=O)=O)CC4)c3)[C@@H]2C)c1Cl` [Example 5, (2-Chloro-3-methoxy-phenyl)-[(7S)-3-[3-chloro-5-(1-methylsulfonylcyclopropyl)phenyl]-2,7-dimethyl-5,7-dihydro-4H-pyrazolo[3,4-c]pyridin-6-yl]methanone] had an IC50 of 59 nM. `CC1c2nn(C)c(-c3cc(F)cc(F)c3)c2CCN1C(=O)c1cc(F)cc(OCC2CNC(=O)C2)c1Cl` (single isomer, unassigned) [Example 39, 4-[[2-Chloro-3-[3-(3,5-difluorophenyl)-2,7-dimethyl-5,7-dihydro-4H-pyrazolo[3,4-c]pyridine-6-carbonyl]-5-fluoro-phenoxy]methyl]pyrrolidin-2-one]: the midpoint of inhibition, the IC50, lay at 169 nM.

In turn, `C[C@@H]1c2nn(C)c(-c3cc(F)c(F)c(F)c3)c2CCN1C(=O)c1cc(F)cc(-c2c[nH]c(C#N)c2)c1Cl` [Example 93, 4-[2-chloro-3-[(7R)-2,7-dimethyl-3-(3,4,5-trifluorophenyl)-5,7-dihydro-4H-pyrazolo[3,4-c]pyridine-6-carbonyl]-5-fluoro-phenyl]-1H-pyrrole-2-carbonitrile] had an IC50 of 734 nM.

`C[C@H]1c2nn(C)c(-c3cc(F)cc(F)c3)c2CCN1C(=O)c1ccc(CCC2CNC(=O)C2)cc1Cl` (stereo in doubt) [Example 47, 4-[2-[3-Chloro-4-[3-(3,5-difluorophenyl)-2,7-dimethyl-5,7-dihydro-4H-pyrazolo[3,4-c]pyridine-6-carbonyl]phenyl]ethyl]pyrrolidin-2-one] came in with an IC50 of 127 nM. `CC1c2nn(C)c(-c3cc(F)cc(F)c3)c2CCN1C(=O)c1cc(F)cc(N2CC(S(C)(=O)=O)C2)c1Cl` (centres unmarked) [Example 22, [2-Chloro-5-fluoro-3-(3-methylsulfonylazetidin-1-yl)phenyl]-[3-(3,5-difluorophenyl)-2,7-dimethyl-5,7-dihydro-4H-pyrazolo[3,4-c]pyridin-6-yl]methanone] yielded an IC50 of 76 nM.

`C[C@H]1c2nn(C)c(-c3cc(F)cc(F)c3)c2CCN1C(=O)c1ncn(-c2cccnc2O)n1` [Example 32, [(7S)-3-(3,5-Difluorophenyl)-2,7-dimethyl-5,7-dihydro-4H-pyrazolo[3,4-c]pyridin-6-yl]-[1-(2-hydroxy-3-pyridyl)-1,2,4-triazol-3-yl]methanone]: 232 nM corresponded to half-maximal inhibition (IC50). Regarding `C[C@H]1c2nn(C)c(-c3cc(F)cc(F)c3)c2CCN1C(=O)c1cc(Cl)cc(OC[C@@H]2CNC(=O)O2)c1Cl` (single isomer, unassigned) [Example 108], the IC50 was 294 nM. Under `C[C@H]1c2nn(C)c(-c3cc(F)cc(F)c3)c2CCN1C(=O)c1ncn(-c2ccc(O)nc2)n1` [Example 33, [(7S)-3-(3,5-Difluorophenyl)-2,7-dimethyl-5,7-dihydro-4H-pyrazolo[3,4-c]pyridin-6-yl]-[1-(6-hydroxy-3-pyridyl)-1,2,4-triazol-3-yl]methanone] stands 163 nM. Next, `C[C@H]1c2nn(C)c(-c3cc(Cl)cc(C4(NS(C)(=O)=O)CC4)c3)c2CCN1C(=O)c1cc(F)cc(-c2cn[nH]c2)c1F` [Example 94, N-[1-[3-chloro-5-[(7S)-6-[2,5-difluoro-3-(1H-pyrazol-4-yl)benzoyl]-2,7-dimethyl-5,7-dihydro-4H-pyrazolo[3,4-c]pyridin-3-yl]phenyl]cyclopropyl]methanesulfonamide]: 472 nM; `C[C@@H]1c2nn(C)c(-c3cc(Cl)cc(S(N)(=O)=O)c3)c2CCN1C(=O)c1ncn(-c2ccc[nH]c2=O)n1` [Example 63, 3-Chloro-5-[(7R)-2,7-dimethyl-6-[1-(2-oxo-1H-pyridin-3-yl)-1,2,4-triazole-3-carbonyl]-5,7-dihydro-4H-pyrazolo[3,4-c]pyridin-3-yl]benzenesulfonamide]: 552 nM. Under `C[C@@H]1c2nn(C)c(-c3cc(F)cc(F)c3)c2CCN1C(=O)c1cc(F)cc(OCC2CNC(=O)O2)c1Cl` (single isomer, unassigned) [Example 52, 5-[[2-Chloro-3-[3-(3,5-difluorophenyl)-2,7-dimethyl-5,7-dihydro-4H-pyrazolo[3,4-c]pyridine-6-carbonyl]-5-fluoro-phenoxy]methyl]oxazolidin-2-one] stands 2000 nM.

As to `C[C@@H]1c2nn(C)c(-c3cc(F)cc(F)c3)c2CCN1C(=O)c1ccc(CCC2CNC(=O)C2)cc1Cl` (single isomer, unassigned) [Example 46, 4-[2-[3-Chloro-4-[3-(3,5-difluorophenyl)-2,7-dimethyl-5,7-dihydro-4H-pyrazolo[3,4-c]pyridine-6-carbonyl]phenyl]ethyl]pyrrolidin-2-one], half-maximal inhibition (IC50) required 258 nM. Next, `C[C@H]1c2nn(C)c(-c3cc(F)cc(F)c3)c2CCN1C(=O)c1ncn(-c2ccnc(O)c2)n1` [Example 112, [(7S)-3-(3,5-difluorophenyl)-2,7-dimethyl-5,7-dihydro-4H-pyrazolo[3,4-c]pyridin-6-yl]-[1-(2-hydroxy-4-pyridyl)-1,2,4-triazol-3-yl]methanone]: 1660 nM. `C[C@H]1c2nn(C)c(-c3cncc(C(F)(F)F)n3)c2CCN1C(=O)c1cc(F)cc(-c2ccc(=O)[nH]c2)c1Cl` [Example 68, 5-[2-chloro-3-[(7S)-2,7-dimethyl-3-[6-(trifluoromethyl)pyrazin-2-yl]-5,7-dihydro-4H-pyrazolo[3,4-c]pyridine-6-carbonyl]-5-fluoro-phenyl]-1H-pyridin-2-one] had an IC50 of 4290 nM.

As to `CC1c2nn(C)c(-c3cc(F)cc(F)c3)c2CCN1C(=O)c1ccc(CCC2CNC(=O)C2)cc1Cl` (centres unmarked) [Example 44, 4-[2-[3-Chloro-4-[3-(3,5-difluorophenyl)-2,7-dimethyl-5,7-dihydro-4H-pyrazolo[3,4-c]pyridine-6-carbonyl]phenyl]ethyl]pyrrolidin-2-one], the IC50 came to 261 nM.
